Counter-ions that a name gives are not always drawn.
What was measured:
[1] = Comfort of hydrophilic excipient bases; type: in vivo; conditions: hydrophilic base
Text: (§1) The purpose of this study was to investigate the feasibility of formulating Minocycline HCl in a ‘gelment’ with a medicated swab container closure. Specifically, formulation feasibility and stability with hydrophilic bases (PEG 400, propylene glycol, glycerol) investigated. Glycerin was unacceptable from a comfort perspective. […] (Following 3 weeks at 25/40, epi-minocycline was 20.7% for PEG 400 base and 2.9% for propylene glycol base.) Degradation was not detected following e-beam irradiation of Minocycline suspended in light mineral oil (single-point testing performed following irradiation—no stability evaluation).

[2] = Excipient compatibility stability screen, minocycline quantitated by HPLC; conditions: in mineral oil, relative to castor and olive oil
[3] = Degradation after e-beam irradiation; type: physicochemical; conditions: suspended in light mineral oil; single-point testing following irradiation
Text: as §1

[4] = Batch uniformity and stability of micronized and unmicronized oil and ointment formulations; type: physicochemical; conditions: jetmilling or cryomilling; 2 batches of drug substance
Description: Two Minocycline HCl drug substance batches were micronized (by jetmilling and cryomilling) and evaluated for chemical properties post-micronization. Jetmilled, cryomilled, and unmicronized oil and ointment formulations were evaluated for batch uniformity and stability.
Oil formulations were 100% oil and ointments were 100% petrolatum. […]. […] evaluated with respect to solubility in light mineral oil.
[…]. The oil suspensions in this study provided consistent T0 results, unlike the earlier oil formulations with unmicronized Minocycline HCl.

Compound | Comfort [1] | Stability (degree of epimerization) in excipient [2] | Degradation following e-beam irradiation [3] | Change in assay following micronization [4]
OCC(O)CO [Glycerin] | unacceptable |  |  | 
CN(C)c1ccc(O)c2c1C[C@H]1C[C@H]3[C@H](N(C)C)C(O)=C(C(N)=O)C(=O)[C@@]3(O)C(O)=C1C2=O [Minocycline HCl] |  | greatest stability | not detected | No change

Source: US20120093876A1, “Ophthalmic Formulations, Methods Of Manufacture And Methods of Normalizing Meibomian Gland Secretions” (Aciex, Inc., priority 2010, published 2012)
